According to PMC5862616 (Oncotarget, 2018):
“And” between values parts separate entries of the source, which are not always exact repeats. Identical values can stand only once. Like-named read-outs stand apart in the source and are kept apart here.

Key:
[1] = system: MKNK1/2 (p-eIF4E S209) in KM-12 cells; assay: Western blot of p-eIF4E S209 in KM-12 cells; format: cell-based
Method: (§1) 20 μg NTRK1 fusion confirmation
(§2) T20 (ThermoScientific, Rockford, IL) for 30 minutes. MiniPrep cat# R2051 following manufacturer ’s protocol. […]
(§3) (1:2000) (Sigma-Aldrich), HRP-conjugated mouse or primers. The primer sequences are TPM3_Ex3B_F5:
(§4) Chalfont, UK). All western blots were developed using Ex12_R5: […]. PCR was […]

[2] = system: p-ERK (MAPK 42/44) in KM-12 cells; assay: Western blot of phosphorylated MAPK 42/44 (ERK) in KM-12 cells; format: cell-based
Method: as §1, §2, §3, §4

[3] = biological target: T1, wild-type TPM3-NTRK1 in NIH-3T3 cells (Homo sapiens, UniProt P04629+P06753); assay: Immunoblot of p-NTRK1 in NIH-3T3 cells, wild-type TPM3-NTRK1; format: cell-based; conditions: 0.2 μM and 0.5 μM, 4 hours
T1 construct: expressed in transfected cells
T1 sequence (P06753+P04629 fused): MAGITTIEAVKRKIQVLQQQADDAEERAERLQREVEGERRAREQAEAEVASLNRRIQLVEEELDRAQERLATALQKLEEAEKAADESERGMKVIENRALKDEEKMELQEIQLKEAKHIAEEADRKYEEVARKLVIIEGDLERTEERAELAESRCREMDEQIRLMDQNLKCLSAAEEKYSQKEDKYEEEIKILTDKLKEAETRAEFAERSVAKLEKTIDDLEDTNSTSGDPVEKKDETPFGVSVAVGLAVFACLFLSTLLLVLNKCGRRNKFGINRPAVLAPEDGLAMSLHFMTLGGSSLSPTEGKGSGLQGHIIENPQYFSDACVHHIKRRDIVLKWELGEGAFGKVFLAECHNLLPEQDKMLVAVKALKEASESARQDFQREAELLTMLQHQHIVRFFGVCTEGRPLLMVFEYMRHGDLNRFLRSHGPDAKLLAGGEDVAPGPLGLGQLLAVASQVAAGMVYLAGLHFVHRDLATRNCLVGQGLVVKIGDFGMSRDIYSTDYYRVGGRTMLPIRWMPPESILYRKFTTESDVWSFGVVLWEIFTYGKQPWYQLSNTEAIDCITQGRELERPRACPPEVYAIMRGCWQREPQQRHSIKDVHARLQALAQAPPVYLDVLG

[4] = biological target: T2, mutant G595R TPM3-NTRK1 in NIH-3T3 cells (Homo sapiens, UniProt P04629+P06753, G595R); assay: Immunoblot of p-NTRK1 in NIH-3T3 cells, G595R TPM3-NTRK1; format: cell-based; conditions: 0.2 μM and 0.5 μM, 4 hours
T2 construct: expressed in transfected cells
T2 sequence (P04629 510-796 G595R limits assumed, one chain of several): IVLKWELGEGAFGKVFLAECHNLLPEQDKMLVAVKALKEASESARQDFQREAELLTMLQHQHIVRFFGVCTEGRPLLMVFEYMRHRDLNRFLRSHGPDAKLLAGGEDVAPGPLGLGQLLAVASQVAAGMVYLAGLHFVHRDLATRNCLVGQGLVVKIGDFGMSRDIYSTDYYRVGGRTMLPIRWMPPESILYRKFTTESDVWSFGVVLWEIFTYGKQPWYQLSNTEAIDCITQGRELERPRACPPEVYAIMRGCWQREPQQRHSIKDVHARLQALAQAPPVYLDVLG

[5] = system: KM-12 cells; assay: KM-12 anchorage dependent cell proliferation (CellTiter-Glo); format: cell-based; conditions: Homo sapiens, KM12, 72 h, read-out: IC50 KM-12 cell proliferation (anchorage dependent)
[6] = system: KM-12 cells; assay: KM-12 anchorage independent growth in alginate; format: cell-based; conditions: Homo sapiens, KM12, 72 h, read-out: IC50 KM-12 anchorage independent growth
[7] = system: KM-12 xenograft tumors (TPM3-NTRK1); assay: KM-12 xenograft tumor model; format: in vivo, athymic nude mice
[8] = system: p-eIF4E in NIH-3T3 cells expressing TPM3-NTRK1; assay: Immunoblot of p-eIF4E in NIH-3T3 TPM3-NTRK1 cells; format: cell-based
Method: 350 μg/ml hygromycin selection for 14 days. Each stable CO). Percent Ki67+ area was calculated as the percentage
wild-type or mutated NTRK1. Control vector containing positive. […]
as §1
T20 (ThermoScientific, Rockford, IL) for 30 minutes. MiniPrep cat# R2051 following manufacturer ’s protocol.
A forward primer upstream of the
as §3, §4

[9] = system: MO-91 xenograft tumors; parameters: method as in PMID 23811600; conditions: 50 mg/kg once daily; cited from earlier work
[10] = system: MO-91 cells (ETV6-NTRK3); conditions: read-out: IC50 proliferation of MO-91 cells; in vitro; cited from earlier work
[11] = system: EL1989 PDX tumors (TPM3-NTRK1); assay: Colorectal carcinoma PDX model EL1989; conditions: mouse, in vivo

## CN1CCN(c2ccc(C(=O)Nc3n[nH]c4ccc(Cc5cc(F)cc(F)c5)cc34)c(NC3CCOCC3)c2)CC1 [Entrectinib, reference compound]
[1]
  p-eIF4E reduction (MKNK1/2 inhibition, in words): small reduction of p-eIF4E

## O=C(Nc1cnn2ccc(N3CCC[C@@H]3c3cc(F)ccc3F)nc12)N1CC[C@H](O)C1 [Larotrectinib, reference compound]
[2]; KM-12 cells, 2 hours, 3.9-1000 nM, western blot
  Concentration giving total inhibition of phosphorylation of MAPK 42/44 (ERK): 15.6 nM
[1]; KM-12 cells, 2 hours, western blot, b12: 100, 500, 1000 nM
  p-eIF4E reduction (MKNK1/2 inhibition, in words): small reduction of p-eIF4E
[3]
  p-NTRK1 (Y490) signaling, wild-type TPM3-NTRK1, in words: reduced
[4]
  p-NTRK1, mutant G595R TPM3-NTRK1, in words: partial p-NTRK1 inhibition

## C[C@@H](Oc1cc(-c2cnn(C3CCNCC3)c2)cnc1N)c1c(Cl)ccc(F)c1Cl [Crizotinib, reference compound]
[2]
  p-ERK inhibition (in words): dose dependent inhibition
[1]
  p-eIF4E reduction (MKNK1/2 inhibition, in words): small reduction of p-eIF4E
[5]
  IC50: 92 nM
[6]
  IC50: 276 nM
[7]; merestinib 24 mg/kg once daily, crizotinib 25 mg/kg twice daily, measured twice weekly, relative to vehicle
  Animal weights, KM-12 xenograft study: no significant weight alteration
[7]; mouse, in vivo
  T/C, KM-12 xenograft: 39.5%
[3]
  p-NTRK1 (Y490) signaling, wild-type TPM3-NTRK1, in words: reduced
[4]
  p-NTRK1, mutant G595R TPM3-NTRK1, in words: little effect
[8]
  p-eIF4E reduction, in words: did not show reduction in p-eIF4E
[9]
  Effect on MO-91 xenograft tumors: induced tumor regression
[10]
  IC50: 10 nM
[11]
  % Necrosis/Mucin, individual animal: 80% (2×) and 20% and 95% and 30% and 10%
  % Necrosis/Mucin, mean per group: 50%
  T/C, EL1989 PDX: 13.5%
